From patent US11471442B2, “Administration of gut-selective JAK3 inhibitor” (THERAVANCE BIOPHARMA R&D IP, LLC, priority 2020, dated 2022)
Read-outs that look alike come from different tables or passages of the source.

Key:
[1] = Phase 1 MAD (Part B) plasma pharmacokinetics in healthy subjects; assay type: in vivo, human; conditions: for half-life: read-out: t1/2, mean (SD) (converted); for AUC: part B (MAD), 100 to 1000 mg BID
Experimental: (§1) The plasma PK parameters of the compound of formula (I) calculated following single (Part A) or multiple (Parts B) oral doses.
In each cohort, healthy subjects meeting eligibility criteria were sequentially randomized in a 3:1 ratio to receive either the compound of formula (I) or placebo BID, each morning and evening (approximately 12 hours following the morning dose) for 10 consecutive days of dosing, except for Day 10 where subjects were only received a morning dose. Subjects were dosed in an upright (i.e., seated or standing) position and remained upright for 5 minutes after dosing before a posture change for other study procedures, if applicable. Subjects fasted overnight for at least 9.5 hours prior to morning dose on Day 1 and Day 10. Subjects continued the fast for at least 4 hours post morning dose on these days. For all other morning doses and for all evening doses (i.e., Day 1 evening and Days 2 to 9), subjects were required to fast for at least 2 hours prior and for at least 2 hours following the dose.
PK sampling for the compound of formula (I) in plasma was taken Day 1 pre-morning dose and for 12 hours post-dose and Day 10 pre-morning dose and for 72 hours post Day 10 dose. Additional pre morning dose samples were taken on Days 2, 4, 6, and 8.
(§2) For all subjects, blood samples for the determination of plasma concentration of the compound of formula (I) were collected at scheduled time points. Blood samples were analyzed to calculate different plasma PK parameters in both part A and part B.
(§3) For all PK data analyses, the PK analysis set was used. Individual subject and mean plasma drug concentration versus time curves for the compound of formula (I) were presented for each dose group. Summary statistics (mean, standard deviation, coefficient of variation, median, minimum, maximum, geometric mean, geometric coefficient of variation, number of subjects) were calculated for plasma concentrations at each time point for each dose group, and the PK parameters for each dose group. Urine PK parameters were summarized for exploratory purposes.

[2] = tested on: oxazolone-induced colitis model in mice; experiment: Oxazolone-induced colitis model in mice; assay type: in vivo
Description: Oxazolone-induced colitis is an experimental model that has a histological resemblance to human ulcerative colitis.

NK cells = experiment: NK cell counts (immunophenotyping) in MAD cohorts; assay type: in vivo, human; conditions: day 1 to day 10, MAD
Experimental: Immunophenotyping was conducted on NK Cells in part B only.

IL-2 induced pSTAT5 = experiment: Murine model of IL-2 induced pSTAT5 induction in the thymus; assay type: in vivo
[3] = Phase 1 pharmacokinetics across all SAD and MAD cohorts; assay type: in vivo; conditions: human, plasma, oral
Experimental: as §1, §2, §3

[4] = Colon and plasma mouse pharmacokinetics; assay type: in vivo
[5] = plasma, Day 1, 100 mg BID, n = 6
[6] = plasma, Day 1, 300 mg BID, n = 6
[7] = plasma, Day 1, 1000 mg BID, n = 6
[8] = plasma, Day 10, 100 mg BID, n = 6
[9] = plasma, Day 10, 300 mg BID, n = 6

CN(C)C/C=C/C(=O)N1CC(COc2cc(-c3ccc(O)cc3)cc3[nH]ncc23)C1 [compound of formula (I)]
time to steady state ([1]; 100 mg BID): 7 days
Accumulation ratio (AUC0-12,ss/AUC0-12), Geometric mean (CV %) ([1]; 100 mg BID, n = 6): 2.5 (35.2)
Accumulation ratio (AUC0-12,ss/AUC0-12), Mean (SD) ([1]; 100 mg BID, n = 6): 2.6 (0.78)
time to steady state ([1]; 300 mg BID): 3 days
Accumulation ratio (AUC0-12,ss/AUC0-12), Geometric mean (CV %) ([1]; 300 mg BID, n = 6): 2.3 (51.9)
Accumulation ratio (AUC0-12,ss/AUC0-12), Mean (SD) ([1]; 300 mg BID, n = 6): 2.5 (1.1)
fold mean Cmax,ss below the protein-adjusted JAK3 IC50 ([1]; 1000 mg BID): approximately 11 fold
time to steady state ([1]; 1000 mg BID): 3 days
Accumulation ratio (AUC0-12,ss/AUC0-12), Geometric mean (CV %) ([1]; 1000 mg BID, n = 6): 2.3 (92.5)
Accumulation ratio (AUC0-12,ss/AUC0-12), Mean (SD) ([1]; 1000 mg BID, n = 6): 2.9 (1.7)
dose proportionality of exposure (AUC and Cmax) ([1]; after multiple-dose administration): dose proportionally
Tmax ([1]; both sexes, human, oral, plasma, Day 10 (morning dose), 100 mg BID, n = 6, read-out: Tmax,ss, median (min, max)): 2 h
half-life ([1]; both sexes, human, oral, plasma, Day 10 (morning dose), 100 mg BID, n = 6): 19.8 h
Tmax ([1]; both sexes, human, oral, plasma, Day 10 (morning dose), 300 mg BID, n = 6, read-out: Tmax,ss, median (min, max)): 1 h
half-life ([1]; both sexes, human, oral, plasma, Day 10 (morning dose), 300 mg BID, n = 6): 19.2 h
Tmax ([1]; both sexes, human, oral, plasma, Day 10 (morning dose), 1000 mg BID, n = 6, read-out: Tmax,ss, median (min, max)): 1 h
half-life ([1]; both sexes, human, oral, plasma, Day 10 (morning dose), 1000 mg BID, n = 6): 18.5 h
AUC(0-t) ([1]; both sexes, human, plasma, oral, 100 mg, plasma, Day 1 (morning dose), 100 mg BID, n = 6, read-out: AUC0-12, mean (SD)): 3.5 ng·h/mL
AUC(0-t) ([1]; both sexes, human, plasma, oral, 100 mg, plasma, Day 10 (morning dose), 100 mg BID, n = 6, read-out: AUC0-12,ss, mean (SD)): 8.9 ng·h/mL
Cmax ([1]; both sexes, human, plasma, oral, 100 mg, plasma, Day 10 (morning dose), 100 mg BID, n = 6, read-out: Cmax,ss, mean (SD)): 1.7 ng/mL
AUC(0-t) ([1]; both sexes, human, plasma, oral, 300 mg, plasma, Day 1 (morning dose), 300 mg BID, n = 6, read-out: AUC0-12, mean (SD)): 8.5 ng·h/mL
AUC(0-t) ([1]; both sexes, human, plasma, oral, 300 mg, plasma, Day 10 (morning dose), 300 mg BID, n = 6, read-out: AUC0-12,ss, mean (SD)): 16.9 ng·h/mL
Cmax ([1]; both sexes, human, plasma, oral, 300 mg, plasma, Day 10 (morning dose), 300 mg BID, n = 6, read-out: Cmax,ss, mean (SD)): 3.5 ng/mL
AUC(0-t) ([1]; both sexes, human, plasma, oral, 1000 mg, plasma, Day 1 (morning dose), 1000 mg BID, n = 6, read-out: AUC0-12, mean (SD)): 37.4 ng·h/mL
AUC(0-t) ([1]; both sexes, human, plasma, oral, 1000 mg, plasma, Day 10 (morning dose), 1000 mg BID, n = 6, read-out: AUC0-12,ss, mean (SD)): 62.1 ng·h/mL
Cmax ([1]; both sexes, human, plasma, oral, 1000 mg, plasma, Day 10 (morning dose), 1000 mg BID, n = 6, read-out: Cmax,ss, mean (SD)): 13.3 ng/mL
Tmax ([1]; human, oral, plasma, Day 1 (morning dose), 100 mg BID, n = 6, read-out: Tmax, median (min, max)): 1.5 h
Tmax ([1]; human, oral, plasma, Day 1 (morning dose), 300 mg BID, n = 6, read-out: Tmax, median (min, max)): 1 h
Tmax ([1]; human, oral, plasma, Day 1 (morning dose), 1000 mg BID, n = 6, read-out: Tmax, median (min, max)): 1.5 h
Cmax ([1]; human, plasma, oral, 100 mg, plasma, Day 1 (morning dose), 100 mg BID, n = 6, read-out: Cmax, mean (SD)): 0.78 ng/mL
Cmax ([1]; human, plasma, oral, 300 mg, plasma, Day 1 (morning dose), 300 mg BID, n = 6, read-out: Cmax, mean (SD)): 2.6 ng/mL
Cmax ([1]; human, plasma, oral, 1000 mg, highest tested dose (1000 mg BID), read-out: mean Cmax,ss (maximum observed concentration at steady-state)): 13 ng/mL
Cmax ([1]; human, plasma, oral, 1000 mg, plasma, Day 1 (morning dose), 1000 mg BID, n = 6, read-out: Cmax, mean (SD)): 10.7 ng/mL
AUC ([1]; human, plasma, oral, read-out: AUCss0-12 in the plasma of the subjects (range)): 5.43 to 88.5 ng·h/mL
AUC ([1]; human, plasma, oral, read-out: average AUCss0-12): 8.94 to 62.1 ng·h/mL
concentration at 10 days ([1]; human, plasma, oral, multiple doses up to 1000 mg BID, read-out: Plasma concentrations): < 35 ng/mL
Dose normalized AUC0-12/D, mean (SD) [1, 5]: 0.035 (0.012) ng*hr/mL/mg
Dose normalized Cmax/D, mean (SD) [1, 5]: 0.0078 (0.0033) ng/mL/mg
Dose normalized AUC0-12/D, mean (SD) [1, 6]: 0.028 (0.016) ng*hr/mL/mg
Dose normalized Cmax/D, mean (SD) [1, 6]: 0.0086 (0.0079) ng/mL/mg
Dose normalized AUC0-12/D, mean (SD) [1, 7]: 0.037 (0.039) ng*hr/mL/mg
Dose normalized Cmax/D, mean (SD) [1, 7]: 0.011 (0.013) ng/mL/mg
Dose normalized AUC0-12,ss/D, mean (SD) [1, 8]: 0.089 (0.036) ng*hr/mL/mg
Dose normalized Cmax,ss/D, mean (SD) [1, 8]: 0.017 (0.0080) ng/mL/mg
Dose normalized AUC0-12,ss/D, mean (SD) [1, 9]: 0.056 (0.012) ng*hr/mL/mg
Dose normalized Cmax,ss/D, mean (SD) [1, 9]: 0.012 (0.0045) ng/mL/mg
Dose normalized Cmax,ss/D, mean (SD) ([1]; plasma, Day 10, 1000 mg BID, n = 6): 0.013 (0.0084) ng/mL/mg
activity in the oxazolone-induced colitis model [2]: demonstrated activity
changes in absolute or relative NK cell counts (NK cells): no apparent changes
systemic activity (IL-2 induced pSTAT5 induction in the thymus) (IL-2 induced pSTAT5): lack of systemic activity
half-life ([3]; across all doses in the SAD and MAD cohorts, read-out: mean terminal elimination half-life): 15 to 20 h
Cmax ([3]; across all doses, read-out: highest observed Cmax): 34.3 ng/mL
Kp ([4]; colon/plasma, mouse, oral administration, read-out: ratio of exposure in the colon to exposure in plasma): > 1250
permeability coefficient (Papp) ([4]; stated in the sentence on the colon and plasma mouse pharmacokinetics study): less than 10×10^−6 cm/sec
